Values belong to the compound of their own block, whether it stands above or below them.
Tests used:
SOD-1 protein = assay: SOD-1 ELISA on lysates of HeLa cells after 72 hours of incubation with drug; assay type: cell-based, human
Procedure: Briefly, cells were maintained in Dulbecco's Minimal Essential Medium, with high glucose, supplemented with glutamine, 4 mM, certified fetal bovine serum, 10%, and penicillin, streptomycin, and nystatin (all from Invitrogen). Incubation conditions were 37 degrees and 99% relative humidity, with CO2 at 5%. Cultures were passaged when they reached 90% confluence. For pharmacological experiments, cells were plated into sterile tissue culture treated 96 well plates at a density of 3,500 cells/well in 150 μl medium. After plating and 6 hours for attachment, drugs were added to the medium in a concentration of 10 μM. Following 72 hours of incubation with the drugs, the cells were photographed at 100× using an inverted microscope and digital camera, so that cytotoxicity could be evaluated. After photodocumentation, the medium was removed and the cells were washed once with phosphate buffered saline, and then 50 μl molecular biology grade water containing a protease inhibitor cocktail was added. After 10 min incubation, the plates were placed in −80 degrees to induce complete lysis. Plates were then thawed and 25 μl was transferred from each well into a maxsorp ELISA plate coated with anti-human SOD-1 antibody, which contained 75 μl phosphate buffered saline. A second antibody pair (a polyclonal anti-SOD-1/HRP conjugated goat anti-rabbit) was then added to the well, and incubation was conducted for 1 hour at room temperature. At the conclusion of the incubation, the plate was washed three times (wash buffer from KPL Inc.) and Sure Blue Reserve HRP Substrate was added. […] The plate was then shaken gently for 5 seconds and the absorbance at 450 mn read on a Tecan Plate reader. Absorbance from each sample were compared to standard curve of purified recombinant human SOD-1 assayed on the same ELISA plate, and SOD-1 immunoreactivity (ng/ml) was estimated by comparison with the standard curve. […] The total protein of the lysates was determined by Bradford assay as described in Example 1 (iv). […]

HeLa cells = assay: Bradford total protein assay of HeLa lysates (check for cytotoxic effects); assay type: cell-based, human; conditions: 72 hours
Procedure: To determine if decrements found in the SOD-1 assay were simply the result of cytotoxic effects of the drug treatment, total protein was determined for each well. While the ELISA incubation was ongoing, 10 μl of the remaining lysate was removed from each well and placed into another empty plate, and BioRad Bradford reagent (100 μl) was added to the protein. After a 15 min incubation at room temperature the plate was shaken gently for 5 seconds and the absorbance was read at 595 nm in a Tecan Sunrise plate reader. Protein concentrations in each well were thus determined by comparison with protein standards that were run on the same plate.
Following 72 hours of incubation with the drugs, the cells were photographed and processed as described in Example 1 (iii). The total protein of the lysates was determined by Bradford assay as described in Example 1 (iv). […] This reduction was dose related and maximal by 3 μM, with an IC50 of 2 μM.

SOD-1 mRNA = SOD-1 mRNA by RT-PCR in blood of the SOD-93A murine model for ALS; assay type: in vivo; conditions: SOD-93A mice, ip 1 or 10 mg/kg for 14 days, lymphocyte/blood samples, p<0.05, FIG. 2
Procedure: The effects of the estrogen receptor modulating agent (e.g., Estradiol), and analogs thereof described in Examples 2 were tested in vivo in the SOD-93A murine model for ALS, and a reduction in SOD-1 levels was measured. The inhibition of RNA expression was monitored by isolated blood samples from a mouse pre- and post introduction of the compound (estradiol benzoate) using standard RT-PCR techniques. The expression of the SOD-1 protein was determined using Western blot techniques with an anti-SOD-1 antibody from Sigma. […] The results are shown as a % of internal control, 18S rRNA.

IC50 (SOD-1 protein; drug added to culture medium 72 hours before harvest, read-out: IC50 of reduction of SOD-1 protein levels): 2 µM
SMILES: C[C@]12CC[C@@H]3c4ccc(O)cc4CC[C@H]3[C@@H]1CC[C@@H]2O [Estradiol]
concentration at which reduction of SOD-1 protein is maximal (SOD-1 protein; 72 hours, dose related): ≤ 3 µM | total protein levels (HeLa cells): unaffected

SMILES: C[C@]12CC[C@@H]3c4ccc(OC(=O)c5ccccc5)cc4CC[C@H]3[C@@H]1CC[C@@H]2O [estradiol benzoate]
SOD-1 mRNA (% of internal control, 18S rRNA) (SOD-1 mRNA): decreased

SMILES: CCCCC(=O)O[C@H]1CC[C@H]2[C@@H]3CCc4cc(O)ccc4[C@H]3CC[C@]12C [estradiol valerate]
levels of SOD-1 protein (SOD-1 protein; 72 hours, FIG. 1): reduction

From patent US20060211673A1, “Modulation of neurodegenerative diseases through the estrogen receptor” (ALSGEN, LLC, priority 2005, published 2006)
